For this assay, the target named is T1, TRPC4 (Homo sapiens, UniProt Q9UBN4).
T1 construct: human TRPC4a channel
T1 sequence (Q9UBN4 1-977): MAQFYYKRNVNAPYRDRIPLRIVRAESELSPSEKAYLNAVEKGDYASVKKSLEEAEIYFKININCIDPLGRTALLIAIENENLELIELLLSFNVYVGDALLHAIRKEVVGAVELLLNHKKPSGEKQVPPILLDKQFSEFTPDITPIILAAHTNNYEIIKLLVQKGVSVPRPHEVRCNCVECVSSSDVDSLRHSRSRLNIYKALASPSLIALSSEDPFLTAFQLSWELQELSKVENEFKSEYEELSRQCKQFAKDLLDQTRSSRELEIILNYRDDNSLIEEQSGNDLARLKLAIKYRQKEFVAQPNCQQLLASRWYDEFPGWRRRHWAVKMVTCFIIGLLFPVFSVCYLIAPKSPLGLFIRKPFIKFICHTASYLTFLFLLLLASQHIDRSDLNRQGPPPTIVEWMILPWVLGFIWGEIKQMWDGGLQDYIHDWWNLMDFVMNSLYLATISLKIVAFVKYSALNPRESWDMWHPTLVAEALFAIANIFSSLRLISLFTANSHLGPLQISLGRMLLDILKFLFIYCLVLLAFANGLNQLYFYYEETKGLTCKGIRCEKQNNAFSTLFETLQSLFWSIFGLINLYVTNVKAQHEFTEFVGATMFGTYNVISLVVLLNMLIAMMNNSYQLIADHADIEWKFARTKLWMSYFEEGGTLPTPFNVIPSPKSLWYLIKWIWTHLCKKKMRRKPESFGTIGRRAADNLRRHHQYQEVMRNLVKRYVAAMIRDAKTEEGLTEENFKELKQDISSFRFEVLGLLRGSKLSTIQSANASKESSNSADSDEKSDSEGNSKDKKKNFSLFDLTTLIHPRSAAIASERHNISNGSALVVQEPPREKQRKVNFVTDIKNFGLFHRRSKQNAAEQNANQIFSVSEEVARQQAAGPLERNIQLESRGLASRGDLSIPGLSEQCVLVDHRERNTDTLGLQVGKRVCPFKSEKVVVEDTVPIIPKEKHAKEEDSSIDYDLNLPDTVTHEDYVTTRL
Kind of assay: whole-cell patch clamp in HEK293-TRPC4 cells (EA-evoked current); also Ca2+ influx assay. Type of assay: cell-based.

Compound `C=C(C)[C@@H]1CCC(C)=C[C@H]1c1c(O)cc(CCCCC)cc1O` [CBD, Cannabidiol] displayed an IC50 of 1.52 ± 0.6 µM.

The values are drawn from publication PMC11603362, “Cannabidiol inhibits transient receptor potential canonical 4 and modulates excitability of pyramidal neurons in mPFC” (Frontiers in Pharmacology, 2024).
